Assay results taken from article PMC8009417, “Selective killing of homologous recombination-deficient cancer cell lines by inhibitors of the RPA:RAD52 protein-protein interaction” (PLoS ONE, 2021).

Experiments:
[1] = system: single-strand annealing (SSA) in U2OS-SA cells; test: Cell-based DSB repair assay, SSA (SA-GFP reporter, FACS); conditions: 4 nM, 2 h pre-treatment, three days
Procedure: (A) The effect of mitoxantrone (MX) on SSA and HR were studied with cell-based DSB repair assays. U2OS-SA and U2OS-DR cells were pre-treated with mitoxantrone for two hours before transfection of the SceI-expression plasmid. Then cells were grown in the presence of mitoxantrone for three days. DSB repair activities were determined by (B) FACS analysis. […] U2OS-SA cells were pre-treated with indicated concentrations of mitoxantrone for two hours, before I-SceI-expression vector transfection. After 72 hours incubation, the cells were harvested, and lysates were prepared. Lysate from each treatment was analyzed by 12% SDS-PAGE and the expression levels of I-SceI was determined by the western blot using anti-HA antibody. The p70 of RPA was used as a loading control. Ratios of I-SceI to p70 was obtained with ImageJ and are shown at the bottom of the image. C: control experiment without the addition of mitoxantrone. (D, E) Analysis of DSB repair activiies by western blots. […] At least three independent experiments were performed. Error bars represent standard deviations.

[2] = system: HCC1937 cells corrected with wild-type BRCA1 gene (BRCA1+); test: Cell viability assay (PrestoBlue, 72 h), HCC1937+BRCA1; assay type: cell-based; conditions: Homo sapiens, estimated from the graphs
Procedure: (§1) Fig 2 BRCA1-deficient HCC1937 breast cancer cell line survival assay. BRCA1-deficient HCC1937 cells corrected with wild-type BRCA1 gene (BRCA1+; closed triangle), and with an empty vector (BRCA1-; closed circle) were examined. For each experiment (Figs 2–4), cell lines were treated with nine concentrations of (A) quinacrine, (B) mitoxantrone, and (C) doxorubicin in 96-well culture plates at 5x10^3 cell/well density. Each treatment point was made in sextuplicate. Treated cells were incubated for 72 hours at 37°C before assessing cell viability using PrestoBlue. Data were normalized to vehicle control. The experiment was repeated three times. Error bars indicate the standard deviation.
(§2) The HCC1937 cell line (a gift from Dr. Simon Powell Memorial Sloan Kettering (MSK), New York) was derived from a mammary gland primary ductal carcinoma at the early onset of a tumor. This TNBC patient carried a germline mutation in BRCA1, resulting in carboxy-terminal truncated protein and loss of the second BRCA1 allele. BRCA1-restored and empty vector cell lines were also obtained by transfection of a vector containing a full-length human BRCA1 cDNA or an empty vector, respectively. The HCC1937 cell lines were cultured as described.
(§3) Cells were seeded 5 x 10^3 cells per well in 96-well plates in a 90 μL volume per well one day before treatment. Cells in 96-well plates were incubated with increasing concentrations of the compound or vehicle control (1% DMSO) for 72 hours. Each treatment plate contained nine concentrations of a compound in sextuplicate. Growth inhibition was determined using PrestoBlue reagent (Life Technologies, #A13261). Fluorescent measurements were taken using a Spectramax M5 plate reader (MDS). To assess cells’ replication in the absence of compounds as a control, six wells on each plate were treated with vehicle to be read in triplicate at the initial treatment day (T0) and at 72-hour read (T100).

[3] = system: BRCA2-deficient PE01 ovarian cancer cells (BRCA2-); test: Cell viability assay (PrestoBlue, 72 h), PE01; assay type: cell-based; conditions: Homo sapiens, estimated from the graphs
Procedure: BRCA2-deficient PE01 cell line (a gift from Dr. Toshiyasu Taniguchi, Tokai University, Japan) were derived from an ovarian cancer patient. BRCA2-proficient “revertant” cell line, C4-2 is one of eight clones derived from PE01 that has acquired resistance to both cisplatin and PARPi due to a secondary mutation that restored the BRCA2 function. PE01 and PE01 C4-2 were grown and maintained in DMEM high glucose (Hyclone) supplemented with 10% Fetal Bovine Serum (FBS, Invitrogen).
as §3

[4] = system: BRCA1-deficient UWB1.289 ovarian cancer cells (BRCA1-); test: Cell viability assay (PrestoBlue, 72 h), UWB1.289; assay type: cell-based; conditions: Homo sapiens, UWB1289, estimated from the graphs
From the text: BRCA1-deficient UWB1.289 cells corrected with wild-type BRCA1 gene (BRCA1+; closed triangle) and parental BRCA1-deficient UWB1.289 (BRCA1-; closed circle). Two PARPi-resistant cell lines derived from UWB1.289, UWB1.289.SYr12 (closed diamond) and UWB1.SYr13 (X), were also examined.
UWB1.289 (a gift from Dr. Lee Zou, Harvard Medical School, Boston, MA) were derived from a serous ovarian carcinoma with a germline BRCA1 mutation and a deletion of the wild-type allele. […] Two PARP-resistant cell lines, SYr12 and SYr13, were derived from the UWB1.289. The Mammary Epithelial growth media, along with SupplementMix solution for UWB1 cell lines, were obtained from PromoCell GmbH and mixed as described.
as §3

[5] = system: BRCA2-revertant PE01 C4-2 cells (BRCA2+); test: Cell viability assay (PrestoBlue, 72 h), PE01 C4-2; conditions: Homo sapiens, C4-2, 72 h, read-out: EC50, cell viability
[6] = system: T1, RPA:RAD52 PPI in U2OS cells; test: Size exclusion chromatography and co-immunoprecipitation of RAD52 with RPA from treated cells; assay type: cell-based; conditions: 3 nM, 24 hours, preliminary experiments
T1 construct: endogenous in cells; host or cells: U2OS
Procedure: (A) RAD52 was co-immunoprecipitated with RPA in the fractions 5, 8, and 10 in the control experiment. The elution positions of the molecular weight standards, thyroglobulin (669 kDa), apoferritin (443 kDa), beta-amylase (200 kDa), and bovine serum albumin (66 kDa), are indicated below the western blot.
U2OS cells (10^6 cells) were seeded in a 100 mm dish and grown overnight. The cells were treated with the indicated concentrations of mitoxantrone (MTX) for 24 hours. The cell lysate was prepared in 100 μl of lysis buffer (PBS with 0.5% NP40, 0.5% Triton X100, 1 mM DTT, protease and phosphatase inhibitors, and 10% glycerol). After mixing with 100 μl cold PBS, the lysate was incubated with 100 μl of DEAE sepharose (GE Life Sciences) for 2 hours at 4°C with rotation. An unbound fraction from DEAE sepharose (~200 μl) was diluted with 200 μl of PBS and half of the mixture was fractionated with Superdex200 (GE Life Sciences) using PBS as elution buffer. Each fraction was incubated with anti-RPA (p32) antibody conjugated with biotin (NeoMarkers, MS-691-B0) at 4°C overnight, then incubated with Streptavidin-magnetic beads (Promega #Z5481) for one hour at 4°C with rotation. […] RAD52 and RPA (p32) were detected by western blotting with anti-RAD52 antibody (LS-C42570, LSBio) and anti-RPA2 antibody (A300-244A, Bethyl Laboratories), respectively.

[7] = system: BRCA1-deficient HCC1937 breast cancer cells (empty vector, BRCA1-); test: Cell viability assay (PrestoBlue, 72 h), HCC1937 with empty vector; assay type: cell-based; conditions: Homo sapiens, estimated from the graphs
Procedure: as §1, §2, §3

O=C1c2c(O)ccc(O)c2C(=O)c2c(NCCNCCO)ccc(NCCNCCO)c21 [Mitoxantrone, mitoxantrone]
inhibition at 0.004 µM [1]: 72%
EC50 [2]: > 5 µM
EC50 [3]: 0.1 µM
EC50 [4]: 0.2 µM
EC50 [5]: 0.4 µM
Effect on RPA:RAD52 PPI in cells (co-immunoprecipitation of RAD52 with RPA) [6]: disrupts the RPA:RAD52 PPI in cells
EC50 [7]: 0.8 µM
